Measurements reported in patent publication US20100273701A1, “USE OF SALUSIN BETA ALONE OR IN COMBINATION WITH OCTREOTIDE AS A THERAPEUTIC AGENT” (priority 2007, published 2010).

What was measured:
HIV-1III8 = type: cell-based
HCMV strain AD169 = assay: HCMV plaque formation assay in MRC-5 cells; settings: for inhibition of HCMV plaque formation as compared to the virus control experiment: 10 micrograms per ml, 7-10 days
[1] = tested on: hepatitis B virus (HBV) ayw strain; assay: HBV experimental assay system, HepG2-2.2.15 cells, TaqMan PCR of secreted HBV DNA; type: cell-based; settings: 10 micrograms per ml, six days, combination 0.95 mole peptide 1 and 1.05 mole peptide 2
Human A549 cells = assay: Apoptosis prevention assay (C2 ceramide, Annexin-5); type: cell-based; settings: 10 micrograms per ml, 30 min pretreatment, combination 0.95 mole peptide 1 and 1.05 mole peptide 2
murine spleen cells = assay: Th1/Th2 cytokine profiling assay; type: cell-based, Balb/c mice; settings: 10 micrograms per ml, Ovalbumin restimulation, 72 hours; for production of IL-2 in murine spleen cells (induced / increased by): combination 0.95 mole peptide 1 and 1.05 mole peptide 2
[2] = tested on: Primary Human endothelial cells (HUVEC); assay: Endothelial cell migration assay; type: cell-based; settings: 10 micrograms per ml, 22 hours
HUVEC = assay: Endothelial tube formation assay; type: cell-based, human; settings: 10 micrograms per ml; 20 hours; combination peptide 1: peptide 2 1.10 mole: 0.90 mole
Excerpt: Positive control was vehicle only. […] Raw data were expressed as average tubule […] ±standard deviation.

Streptococcus pneumoniae = settings: 10 micrograms per ml; read visually

Row | Compound | antiviral activity of positive control compounds (HIV-1) (HIV-1III8) | antiviral activity of positive control compound (HCMV) (HCMV strain AD169; positive control) | inhibition of HBV replication as compared to the virus control infection [1] | reduction of the ceramide-induced apoptosis on human lung cells (Human A549 cells) | change of the production of IL-4 in murine spleen cells (murine spleen cells) | change of the production of IL-5 in murine spleen cells (murine spleen cells) | change of the production of TNF-alpha in murine spleen cells (murine spleen cells) | production of IFN-γ in murine spleen cells (decreased by) (murine spleen cells) | production of IL-2 in murine spleen cells (induced / increased by) (murine spleen cells) | increase of the migration of endothelial cells [2] | inhibition of the tube formation of human endothelial cells (HUVEC) | inhibition of the growth of Streptococcus pneumoniae (Streptococcus pneumoniae) | inhibition of HCMV plaque formation as compared to the virus control experiment (HCMV strain AD169) | inhibition of the migration of human endothelial cells ([2]; combination peptide 1: peptide 2 1.10 mole: 0.90 mole)
1 | Cc1cn([C@H]2C[C@H](N=[N+]=[N-])[C@@H](CO)O2)c(=O)[nH]c1=O [AZT] | expected levels of antiviral activity | – | – | – | – | – | – | – | – | – | – | – | – | –
2 | Nc1nc(O)c2ncn(COC(CO)CO)c2n1 [Ganciclovir] | – | expected levels of antiviral activity | – | – | – | – | – | – | – | – | – | – | – | –
3 | C[C@@H](O)[C@@H]1NC(=O)[C@H](CCCCN)NC(=O)[C@@H](Cc2c[nH]c3ccccc23)NC(=O)[C@H](Cc2ccccc2)NC(=O)[C@@H](NC(=O)[C@H](N)Cc2ccccc2)CSSC[C@@H](C(=O)N[C@H](CO)[C@@H](C)O)NC1=O [Peptide 2, D-Phe-Cys-Phe-D-Trp-Lys-Thr-Cys-L-threoninol] | – | – | 13.4% | did not reduce | did not significantly change | did not significantly change | did not significantly change | 44% | 59.5% | 24% | 8% | 100% | 2.9% | –
4 | CC(C)(C)NC(=O)[C@@H]1CN(Cc2cccnc2)CCN1C[C@@H](O)C[C@@H](Cc1ccccc1)C(=O)N[C@H]1c2ccccc2C[C@H]1O [indinavir] | expected levels of antiviral activity | – | – | – | – | – | – | – | – | – | – | – | – | –
5 | Ala-lle-Phe-Ile-Phe-Ile-Arg-Trp-Leu-Leu-Lys-Leu-Gly-His-His-Gly-Arg-Ala-Pro-Pro-OH [Peptide 1] | – | – | 44.6% | 28.2% | did not significantly change | did not significantly change | did not significantly change | did not significantly change | 156% | – | 23% | no inhibitory effects | did not inhibit | 19%
